Source: ChEMBL document CHEMBL4828750, “Structure-activity relationships of agonists for the orphan G protein-coupled receptor GPR27” (Eur J Med Chem, 2021)

Each compound was assayed against T1, Probable G-protein coupled receptor 27 (Homo sapiens, UniProt Q9NS67) (assay: Agonist activity at human GPR27 expressed in HEK293 cells co-expressing FnLArrb2.GPR27V2LFc assessed as induction of beta-arrestin recruitment incubated for 10 mins measured followed by addition of D-luciferin by firefly-luciferase complementation assay). Conditions: not given.
T1 sequence (Q9NS67 whole entry): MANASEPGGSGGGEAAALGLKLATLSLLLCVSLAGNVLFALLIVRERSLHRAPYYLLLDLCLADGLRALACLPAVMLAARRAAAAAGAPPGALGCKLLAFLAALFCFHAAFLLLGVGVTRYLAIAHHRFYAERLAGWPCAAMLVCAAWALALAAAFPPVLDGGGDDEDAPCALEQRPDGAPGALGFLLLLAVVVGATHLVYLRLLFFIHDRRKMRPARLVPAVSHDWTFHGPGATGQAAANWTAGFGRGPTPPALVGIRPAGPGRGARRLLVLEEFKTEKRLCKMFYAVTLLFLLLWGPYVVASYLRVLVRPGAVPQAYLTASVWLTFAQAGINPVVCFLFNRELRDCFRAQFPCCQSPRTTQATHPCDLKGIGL
Format: functional, cell-based

Row | EC50 | SMILES
1 | 912 nM | Cc1cc(Cl)ccc1C(=O)Nc1ccc(S(=O)(=O)Nc2ccccc2)cc1
2 | 229 nM | N#Cc1ccc(C(=O)Nc2ccc(S(=O)(=O)Nc3ccccc3)cc2)c(F)c1
3 | > 100000 nM | O=C(Cc1ccc(Cl)cc1Cl)Nc1ccc(S(=O)(=O)Nc2ccccc2)cc1
4 | > 100000 nM | O=C(Nc1ccc(S(=O)(=O)Nc2ncccn2)cc1)c1ccc(Cl)cc1Cl
5 | 1230 nM | Cc1ccccc1NS(=O)(=O)c1ccc(NC(=O)c2ccc(Cl)cc2Cl)cc1
6 | 575 nM | O=C(Nc1ccc(S(=O)(=O)Nc2cccc(Cl)c2)cc1)c1ccc(Cl)cc1Cl
7 | 479 nM | O=C(Nc1ccc(S(=O)(=O)Nc2ccccc2)cc1)c1ccc(Br)cc1F
8 | 8510 nM | O=C(Nc1ccc(S(=O)(=O)Nc2ccccc2)cc1)c1ccc2ccccc2c1
9 | 141 nM | O=C(Nc1ccc(S(=O)(=O)Nc2ccccc2)cc1)c1cc(F)c(Cl)cc1F
10 | 2290 nM | O=C(Nc1ccc(S(=O)(=O)Nc2ccccc2)cc1)c1ccc(Cl)nc1F
11 | 3980 nM | O=C(Nc1ccc(S(=O)(=O)Nc2ccccc2)cc1)c1ccc(Cl)cc1F
12 | 457 nM | O=C(Nc1ccc(S(=O)(=O)Nc2ccccc2)cc1)c1ccc(Cl)cc1Cl
13 | 363 nM | O=C(Nc1ccc(S(=O)(=O)Nc2ccccc2)cc1)c1ccc(C(F)(F)F)cc1F
14 | 7760 nM | O=C(Nc1ccc(S(=O)(=O)Nc2ccccc2)cc1)c1cc2ccccc2oc1=O
15 | > 100000 nM | O=C(NS(=O)(=O)c1ccc(NC(=O)c2ccc(Cl)cc2Cl)cc1)c1ccccc1
16 | > 10000 nM | O=C(Nc1ccccc1)c1ccc(NC(=O)c2ccc(Cl)cc2Cl)cc1

Row | EC50 | SMILES
17 | > 100000 nM | COc1ccc(NS(=O)(=O)c2ccc(NC(=O)c3ccc(Cl)cc3Cl)cc2)cc1
18 | 1260 nM | O=C(Nc1ccc(S(=O)(=O)Nc2ccccc2Cl)cc1)c1ccc(Cl)cc1Cl
19 | 851 nM | Cc1cc(Br)ccc1C(=O)Nc1ccc(S(=O)(=O)Nc2ccccc2)cc1
20 | > 100000 nM | O=C(Nc1ccc(S(=O)(=O)NCc2ccccc2)cc1)c1ccc(Cl)cc1Cl
21 | 1020 nM | COc1cc(Br)ccc1C(=O)Nc1ccc(S(=O)(=O)Nc2ccccc2)cc1
22 | 5130 nM | O=C(Nc1ccc(S(=O)(=O)Nc2ccccc2)cc1)c1ccc(I)cc1F
23 | > 100000 nM | O=S(=O)(Nc1ccccc1)c1ccc(NS(=O)(=O)c2ccc(Cl)cc2Cl)cc1
24 | 1020 nM | O=C(Nc1ccc(S(=O)(=O)Nc2ccccc2)cc1)c1ccc(Cl)cc1Br
25 | > 100000 nM | O=C(Nc1ccc(Cl)cc1Cl)c1ccc(S(=O)(=O)Nc2ccccc2)cc1
26 | > 100000 nM | O=C(Nc1ccc(S(=O)(=O)Nc2ccc(Cl)cc2)cc1)c1ccc(Cl)cc1Cl
27 | 5750 nM | O=C(Nc1ccc(S(=O)(=O)Nc2ccccc2)cc1)c1ncc(Cl)cc1Cl
28 | > 100000 nM | O=C(Nc1cccc(S(=O)(=O)Nc2ccccc2)c1)c1ccc(Cl)cc1Cl
29 | 3020 nM | O=C(Nc1ccc(S(=O)(=O)Nc2ccccn2)cc1)c1ccc(Cl)cc1Cl
30 | > 100000 nM | Cc1ccc(NS(=O)(=O)c2ccc(NC(=O)c3ccc(Cl)cc3Cl)cc2)cc1
31 | 2570 nM | CN(c1ccccc1)S(=O)(=O)c1ccc(NC(=O)c2ccc(Cl)cc2Cl)cc1

The compounds below were run against T1, Probable G-protein coupled receptor 27 (assay: Agonist activity at human GPR27 expressed in HEK293 cells assessed as induction of beta-arrestin recruitment pretreated with substrate for 45 mins followed by compound addition and measured for 40 mins by NanoLuc luciferase complementation assay). Conditions: not given.
Format: functional, cell-based

Row | EC50 | SMILES
32 | 1300 nM | O=C(Nc1ccc(S(=O)(=O)Nc2nccs2)cc1)c1ccc(Cl)cc1Cl
33 | 912 nM | O=C(Nc1ccc(S(=O)(=O)Nc2ccccc2)cc1)c1ccc(Cl)cc1Cl

These compounds were tested on HEK293 (assay: Cytotoxicity against human HEK293 cells expressing FnLArrb2.GPR27V2LFc up to 33.3 uM incubated for 10 mins by MTT assay). Conditions: hek293, 10 min.
Format: cell-based

Row | SMILES | Activity
34 | Cc1cc(Cl)ccc1C(=O)Nc1ccc(S(=O)(=O)Nc2ccccc2)cc1 | Non-Toxic
35 | O=C(Nc1ccc(S(=O)(=O)Nc2ccccc2)cc1)c1ccc(Cl)cc1Cl | Non-Toxic
36 | O=C(Nc1ccc(S(=O)(=O)Nc2ccccc2)cc1)c1ccc(C(F)(F)F)cc1F | Non-Toxic
37 | Cc1cc(Br)ccc1C(=O)Nc1ccc(S(=O)(=O)Nc2ccccc2)cc1 | Non-Toxic
